According to ChEMBL document CHEMBL1201862, “PubChem BioAssay data set” (2004):
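Protocol summary: plate cells (96-well), add compound at 5 concentrations, incubate 48 h, interpolate endpoints linearly. GI50: concentration for 50% inhibition of growth.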 The source made the active and inactive calls. Rule as the data show it: active = GI50 up to about 1.1 µM and inactive = higher.

Legend:
Experiment in all cases: NCI anticancer screen, dose series, 48 h
CCRF-CEM = test system: CCRF-CEM
DU-145 = test system: DU-145
HCT-116 = test system: HCT-116
HL-60 = test system: HL-60
IGROV-1 = test system: IGROV-1
KM12 = test system: KM12
MCF7 = test system: MCF7
MDA-N = test system: MDA-N
Malme-3M = test system: Malme-3M
NCI-H460 = test system: NCI-H460
OVCAR-5 = test system: OVCAR-5
OVCAR-8 = test system: OVCAR-8
SF-295 = test system: SF-295
SK-MEL-2 = test system: SK-MEL-2
SK-MEL-5 = test system: SK-MEL-5
SNB-19 = test system: SNB-19
SNB-75 = test system: SNB-75
SR = test system: SR
UACC-257 = test system: UACC-257
UO-31 = test system: UO-31

| SMILES | GI50 (CCRF-CEM) | GI50 (DU-145) | GI50 (HCT-116) | GI50 (HL-60) | GI50 (IGROV-1) | GI50 (KM12) | GI50 (MCF7) | GI50 (MDA-N) | GI50 (Malme-3M) | GI50 (NCI-H460) | GI50 (OVCAR-5) | GI50 (OVCAR-8) | GI50 (SF-295) | GI50 (SK-MEL-2) | GI50 (SK-MEL-5) | GI50 (SNB-19) | GI50 (SNB-75) | GI50 (SR) | GI50 (UACC-257) | GI50 (UO-31) |
| --- | --- | --- | --- | --- | --- | --- | --- | --- | --- | --- | --- | --- | --- | --- | --- | --- | --- | --- | --- | --- |
| Cc1ccc(CSC(=N)Nc2ccccc2)cc1C | 20.2 µM (inactive) | 20.7 µM (inactive) | 16.6 µM (inactive) | 30.3 µM (inactive) | 23.2 µM (inactive) | 19.5 µM (inactive) | 18.7 µM (inactive) | 18.9 µM (inactive) | 17.1 µM (inactive) | 18.6 µM (inactive) | 20.2 µM (inactive) | 19 µM (inactive) | 25 µM (inactive) | 16.7 µM (inactive) | 16.1 µM (inactive) | 23.7 µM (inactive) | 25.8 µM (inactive) | 19.5 µM (inactive) | 17.4 µM (inactive) | – |
| C[N+](C)(C)c1ncnc2c1ncn2C1CCCCO1 (stereo not given) | > 100 µM (inactive) | > 100 µM (inactive) | > 100 µM (inactive) | > 100 µM (inactive) | > 100 µM (inactive) | > 100 µM (inactive) | > 100 µM (inactive) | > 100 µM (inactive) | > 100 µM (inactive) | > 100 µM (inactive) | > 100 µM (inactive) | > 100 µM (inactive) | > 100 µM (inactive) | > 100 µM (inactive) | > 100 µM (inactive) | > 100 µM (inactive) | > 100 µM (inactive) | > 100 µM (inactive) | > 100 µM (inactive) | > 100 µM (inactive) |
| COC1CC(OC2C(C)OC(OC3C(C)OC(OC4C(C)OC(O[C@H]5CC[C@@]6(C)C(=CC[C@]7(O)[C@@H]6C[C@@H](OC(=O)/C=C/c6ccccc6)[C@@]6(C)[C@]7(O)CC[C@@]6(O)C(C)=O)C5)CC4OC)CC3OC)CC2OC)OC(C)C1O (stereo not given in full) | > 12.5 µM (inactive) | > 12.5 µM (inactive) | > 12.5 µM (inactive) | 6.75 µM (inactive) | > 12.5 µM (inactive) | 10.1 µM (inactive) | > 12.5 µM (inactive) | > 12.5 µM (inactive) | > 12.5 µM (inactive) | – | > 12.5 µM (inactive) | > 12.5 µM (inactive) | > 12.5 µM (inactive) | > 12.5 µM (inactive) | 11.4 µM (inactive) | > 12.5 µM (inactive) | > 12.5 µM (inactive) | > 12.5 µM (inactive) | > 12.5 µM (inactive) | 3.11 µM (inactive) |
| CCOC(=O)/C(=N\OC)C(O)C(F)(F)F (stereo not given) | > 100 µM (inactive) | > 100 µM (inactive) | > 100 µM (inactive) | > 100 µM (inactive) | > 100 µM (inactive) | > 100 µM (inactive) | > 100 µM (inactive) | > 100 µM (inactive) | > 100 µM (inactive) | – | > 100 µM (inactive) | > 100 µM (inactive) | > 100 µM (inactive) | > 100 µM (inactive) | > 100 µM (inactive) | > 100 µM (inactive) | > 100 µM (inactive) | > 100 µM (inactive) | > 100 µM (inactive) | > 100 µM (inactive) |
| CCOC(=O)CC/C(C)=N\n1c(Cc2ccc(Cl)cc2)n[nH]c1=O | – | > 100 µM (inactive) | > 100 µM (inactive) | > 100 µM (inactive) | > 100 µM (inactive) | > 100 µM (inactive) | > 100 µM (inactive) | > 100 µM (inactive) | > 100 µM (inactive) | 86.1 µM (inactive) | 14.3 µM (inactive) | > 100 µM (inactive) | > 100 µM (inactive) | > 100 µM (inactive) | > 100 µM (inactive) | > 100 µM (inactive) | > 100 µM (inactive) | > 100 µM (inactive) | > 100 µM (inactive) | > 100 µM (inactive) |
| CSc1c(C#N)c(O)n(-c2ccc(Cl)cc2)c(=O)c1C(C)=O | 17 µM (inactive) | 70.6 µM (inactive) | 38.1 µM (inactive) | 18.4 µM (inactive) | – | > 100 µM (inactive) | 52.4 µM (inactive) | 55.5 µM (inactive) | 23.3 µM (inactive) | > 100 µM (inactive) | 45.7 µM (inactive) | 42.4 µM (inactive) | – | > 100 µM (inactive) | 89.1 µM (inactive) | 88.5 µM (inactive) | 94.8 µM (inactive) | 30.5 µM (inactive) | > 100 µM (inactive) | 24.9 µM (inactive) |
| CC1=C(C(=O)Nc2ccccc2)C(c2ccc(C)o2)C(C#N)=C(SCc2ccccc2)N1 (stereo not given) | 13.2 µM (inactive) | > 100 µM (inactive) | 33.3 µM (inactive) | 17.7 µM (inactive) | 52.6 µM (inactive) | 10.9 µM (inactive) | 19.8 µM (inactive) | 5.38 µM (inactive) | 5.77 µM (inactive) | > 100 µM (inactive) | > 100 µM (inactive) | > 100 µM (inactive) | 96.2 µM (inactive) | > 100 µM (inactive) | 34.5 µM (inactive) | > 100 µM (inactive) | > 100 µM (inactive) | 4.75 µM (inactive) | > 100 µM (inactive) | 99.3 µM (inactive) |
| CCCCCCCCCCCCCCCCOP(=O)(O)OCC(NC(C)=O)C(=O)O (stereo not given) | – | > 100 µM (inactive) | 36.4 µM (inactive) | 43.8 µM (inactive) | 24.3 µM (inactive) | – | > 100 µM (inactive) | 54.2 µM (inactive) | > 100 µM (inactive) | 39.1 µM (inactive) | > 100 µM (inactive) | > 100 µM (inactive) | 20.4 µM (inactive) | > 100 µM (inactive) | > 100 µM (inactive) | 18.7 µM (inactive) | 20 µM (inactive) | 73.8 µM (inactive) | 54.1 µM (inactive) | > 100 µM (inactive) |
| COc1cccc(C2C3=C(COC3=O)Oc3cc4c(cc32)OCO4)c1 (stereo not given) | 0.0192 µM (active) | 0.0375 µM (active) | 0.0264 µM (active) | < 0.0146 µM (active) | 0.0738 µM (active) | < 0.0142 µM (active) | 0.0246 µM (active) | < 0.01 µM (active) | 0.0248 µM (active) | 0.0267 µM (active) | 0.52 µM (active) | 0.0421 µM (active) | < 0.0303 µM (active) | < 0.0247 µM (active) | 0.0175 µM (active) | 0.187 µM (active) | 0.0194 µM (active) | < 0.0135 µM (active) | 0.0303 µM (active) | 0.0927 µM (active) |
| Fc1ccc2nc3n(c2c1)C(c1c(F)cccc1F)SC3 (stereo not given) | – | > 100 µM (inactive) | 24.5 µM (inactive) | 17.7 µM (inactive) | > 100 µM (inactive) | 39.4 µM (inactive) | 39.9 µM (inactive) | 26.7 µM (inactive) | > 100 µM (inactive) | 44 µM (inactive) | 8.69 µM (inactive) | 65.6 µM (inactive) | 46 µM (inactive) | 96.8 µM (inactive) | 26.7 µM (inactive) | > 100 µM (inactive) | 31.6 µM (inactive) | 18.4 µM (inactive) | 47.8 µM (inactive) | 30.9 µM (inactive) |
| CC(=O)O[C@H]1CCn2c3c(c(C)c21)C(=O)C(N1CC1)=C(C)C3=O | > 10 µM (inactive) | 4.21 µM (inactive) | > 10 µM (inactive) | > 10 µM (inactive) | > 10 µM (inactive) | > 10 µM (inactive) | 5.51 µM (inactive) | > 10 µM (inactive) | > 10 µM (inactive) | 3.52 µM (inactive) | > 10 µM (inactive) | > 10 µM (inactive) | 5.11 µM (inactive) | > 10 µM (inactive) | 2.57 µM (inactive) | > 10 µM (inactive) | 8.51 µM (inactive) | > 10 µM (inactive) | > 10 µM (inactive) | – |
| Clc1cccc(Cl)c1C1ON=C(c2ccccc2)N1C12CC3CC(CC(C3)C1)C2 (stereo not given) | 10.4 µM (inactive) | 76.9 µM (inactive) | 10.9 µM (inactive) | 3.3 µM (inactive) | 29.1 µM (inactive) | 1.63 µM (inactive) | 0.121 µM (active) | 37.6 µM (inactive) | 14.8 µM (inactive) | 13.7 µM (inactive) | > 100 µM (inactive) | 32.7 µM (inactive) | > 100 µM (inactive) | 12.1 µM (inactive) | 4.57 µM (inactive) | 67.5 µM (inactive) | 0.387 µM (active) | 5.35 µM (inactive) | 3.29 µM (inactive) | 58.5 µM (inactive) |
| C(=C\c1ccccc1)/COc1ccccc1C(N1CCOCC1)n1nc2ccccc2n1 (stereo not given) | 1.88 µM (inactive) | 5.85 µM (inactive) | 5.31 µM (inactive) | 0.352 µM (active) | 7.98 µM (inactive) | 5.26 µM (inactive) | 1.4 µM (inactive) | 0.621 µM (active) | 2.99 µM (inactive) | 15.4 µM (inactive) | 14.1 µM (inactive) | 3.5 µM (inactive) | 8.95 µM (inactive) | 7.23 µM (inactive) | 3.33 µM (inactive) | 19.2 µM (inactive) | 4.8 µM (inactive) | 1.07 µM (active) | 5.51 µM (inactive) | 9.86 µM (inactive) |
| C/C(=N\N=C(/S)N1CC2CCC(CC2)C1)c1ccncn1 | < 0.01 µM (active) | 0.309 µM (active) | < 0.01 µM (active) | < 0.01 µM (active) | < 0.01 µM (active) | < 0.01 µM (active) | < 0.01 µM (active) | 0.189 µM (active) | < 0.01 µM (active) | < 0.01 µM (active) | 0.213 µM (active) | < 0.01 µM (active) | < 0.0179 µM (active) | 1.19 µM (inactive) | < 0.01 µM (active) | 0.198 µM (active) | 0.221 µM (active) | < 0.01 µM (active) | < 0.01 µM (active) | < 0.01 µM (active) |
